Literature values, collected in patent publication US6610313B2, “Lysophospholipids composition with water solubility” (Doosan Corporation, priority 2001, dated 2003).

Experiments:
[1] = tested on: phospholipase D; conditions: Proc. Natl. Acad. Sci. USA, Vol.94, pp12717-12721
[2] = LPE alone
[3] = tested on: tomato; conditions: U.S. Pat. Nos. 5,220,341 and 5,126,155

| Substance | inhibition effect of phospholipase D [1] | water solubility of LPE itself [2] | aging of leaves and fruits of tomato [3] | storage time of tomato after harvesting [3] |
| --- | --- | --- | --- | --- |
| lysophosphatidylserine [LPS, reference compound] | opposite |  |  |  |
| lysophosphatidylic acid [LPA, reference compound] | cannot inhibit |  |  |  |
| lysophosphatidylethanolamine [LPE] | most excellent | not water-soluble | inhibits the aging of leaves and fruits of tomato | extends the storage time of tomato after harvesting |
| lysophosphatidylcholine [LPC] | only a slight activity |  |  |  |

Now from value to substance, other results behind:

| inhibition effect of phospholipase D [1] | water solubility of LPE itself [2] | Substance | aging of leaves and fruits of tomato [3] | storage time of tomato after harvesting [3] |
| --- | --- | --- | --- | --- |
| gradually decreases |  | lysophosphatidylinositol [LPI] |  |  |
| opposite |  | lysophosphatidylglycerol [LPG, reference compound] |  |  |
